Legend:
Assay type in all cases: cell-based
[1] = biological target: T1, GABAA receptor (α1β3γ2L), β3 subunit (Homo sapiens, UniProt P14867+P18507+P28472); assay: two-electrode voltage clamp
[2] = biological target: T1, GABAA receptor (α1β3γ2L), β3 subunit; assay: two-electrode voltage clamp in oocytes
[3] = biological target: T1, GABAA receptor (α1β3γ2L), β3 subunit; assay: two-electrode voltage clamp; remark: listed apart in the source

T1 sequence (P28472 26-473): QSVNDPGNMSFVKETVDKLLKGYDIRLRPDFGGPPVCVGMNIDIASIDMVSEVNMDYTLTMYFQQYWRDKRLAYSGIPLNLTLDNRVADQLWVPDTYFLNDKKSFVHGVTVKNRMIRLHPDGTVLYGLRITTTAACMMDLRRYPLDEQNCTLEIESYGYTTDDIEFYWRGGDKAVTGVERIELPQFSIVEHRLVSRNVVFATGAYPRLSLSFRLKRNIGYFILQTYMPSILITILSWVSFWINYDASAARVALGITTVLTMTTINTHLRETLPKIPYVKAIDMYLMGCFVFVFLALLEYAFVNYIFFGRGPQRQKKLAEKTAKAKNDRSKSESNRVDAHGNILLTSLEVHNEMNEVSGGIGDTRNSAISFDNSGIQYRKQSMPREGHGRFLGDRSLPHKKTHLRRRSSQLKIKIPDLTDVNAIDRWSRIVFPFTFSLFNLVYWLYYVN
T1 sequence (P14867 28-456): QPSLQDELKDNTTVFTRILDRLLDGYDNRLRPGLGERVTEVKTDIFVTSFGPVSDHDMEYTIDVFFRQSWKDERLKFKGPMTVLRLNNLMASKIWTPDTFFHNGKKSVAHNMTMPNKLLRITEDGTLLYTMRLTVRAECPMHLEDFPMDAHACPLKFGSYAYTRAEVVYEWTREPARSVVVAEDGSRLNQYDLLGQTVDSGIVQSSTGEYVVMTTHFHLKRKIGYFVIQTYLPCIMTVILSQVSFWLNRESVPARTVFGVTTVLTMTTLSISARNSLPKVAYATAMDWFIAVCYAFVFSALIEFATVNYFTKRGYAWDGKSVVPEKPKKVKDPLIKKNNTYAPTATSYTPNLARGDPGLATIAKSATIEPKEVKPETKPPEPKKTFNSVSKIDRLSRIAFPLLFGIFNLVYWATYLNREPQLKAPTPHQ
T1 sequence (P18507 40-475): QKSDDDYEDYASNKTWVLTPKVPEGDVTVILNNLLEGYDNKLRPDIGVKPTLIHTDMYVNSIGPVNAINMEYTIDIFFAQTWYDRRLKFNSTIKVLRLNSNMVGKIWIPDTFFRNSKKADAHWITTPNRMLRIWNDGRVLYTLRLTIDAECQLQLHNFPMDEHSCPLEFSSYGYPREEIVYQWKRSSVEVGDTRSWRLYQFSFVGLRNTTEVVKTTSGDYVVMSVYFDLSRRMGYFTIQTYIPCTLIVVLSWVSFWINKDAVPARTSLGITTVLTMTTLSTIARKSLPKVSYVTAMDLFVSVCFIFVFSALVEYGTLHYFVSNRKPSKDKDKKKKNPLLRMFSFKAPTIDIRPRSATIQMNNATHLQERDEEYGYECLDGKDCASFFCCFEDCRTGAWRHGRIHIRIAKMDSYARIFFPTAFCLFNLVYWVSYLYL

Molecule | two-electrode voltage clamp; potentiation of EC5 GABA currents, reversed by naph [1] | further results
Cl/C(=C\n1cncn1)c1ccc(Cl)cc1Cl [Loreclezole] | ~ 10 μM | –
CCOC(=O)Nc1ccc(NCc2c(C)cc(C)cc2C)cc1N [AA29504] | ~ 1 μM | –
naphthalene-etomidate | – | IC50 [2]: 76 µM
NCc1cc(=O)[nH]o1 [Muscimol] | – | two-electrode voltage clamp; potentiation of EC5 GABA currents, not reversed by [3]: ~ 3 μM
OCC(Cl)(Cl)Cl [2,2,2-Trichloroethanol] | ~ 2 mM | –
FC(F)OC(Cl)C(F)(F)F (stereo not shown) [Isoflurane] | ~ 1.5 mM | –
CC(=O)[C@H]1CC[C@H]2[C@@H]3CC[C@H]4C[C@H](O)CC[C@]4(C)[C@H]3C(=O)C[C@]12C [Alphaxalone] | ~ 2 μM | –

From article PMC7006677 (Pharmacological reports : PR, 2020)
